For 13 molecules, TGI and GI50 results are on record in PubChem BioAssay (NCI).

Molecules are shown by their SMILES.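 Compound exposure: 48 hours, 5 concentrations, 96-well plates. Abbreviation: GI50, concentration required for 50% inhibition of growth. TGI denotes the concentration required for complete inhibition of growth.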 Where a SMILES comes first, the peptide text is derived from it. [ ]: non-standard residue; d: D form. The star is where a group is joined. ξ: configuration not given here. ξF = NC(Cc1ccccc1)C(=O)O; Cbz = O=C(OCc1ccccc1)*; Aib = CC(C)(N)C(=O)O

Test systems include NCI/ADR-RES ovarian; SK-MEL-5 melanoma; PC-3 prostate; A549 NSCLC; BT-549 breast; COLO 205 colon; HCT-15 colon; HS 578T breast; HCC-2998 colon; SF-539 CNS.
What all share (assay): growth of human tumour cells (NCI), 48 h

On to `CC(C)(CO)CNc1cc(=O)[nH]c(N)n1`, for which the TGI with NCI/ADR-RES ovarian, with SK-MEL-5 melanoma, with PC-3 prostate, in the experiment with A549 NSCLC, with BT-549 breast and in the experiment on COLO 205 colon was greater than 100 µM in each case. The TGI with HCT-15 colon, in the experiment on HS 578T breast and in the experiment on HCC-2998 colon was greater than 100 µM each time.
For `OC(C1CCC=NN1C(O)(C(F)(F)F)C(F)(F)F)(C(F)(F)F)C(F)(F)F` (stereo not drawn), the TGI with NCI/ADR-RES ovarian, in the experiment on SK-MEL-5 melanoma, in the experiment on PC-3 prostate, in the experiment on SF-539 CNS, with A549 NSCLC and with BT-549 breast was greater than 10 µM each time. Further, the TGI in the experiment on COLO 205 colon, with HCT-15 colon, in the experiment with HS 578T breast and in the experiment on HCC-2998 colon was greater than 10 µM each time.
Regarding `CCN1CC(C)Cn2c(=O)[nH]c3cc(Br)cc1c32` (stereo not drawn), the TGI in the experiment with NCI/ADR-RES ovarian is greater than 100 µM; in the experiment on SK-MEL-5 melanoma, greater than 100 µM; with PC-3 prostate, greater than 100 µM; with SF-539 CNS, greater than 100 µM; with A549 NSCLC, greater than 100 µM; in the experiment on BT-549 breast, 56.8 µM. The TGI is greater than 100 µM in the experiment with COLO 205 colon, greater than 100 µM in the experiment on HCT-15 colon, 74.3 µM in the experiment with HS 578T breast and greater than 100 µM in the experiment with HCC-2998 colon.
`S=C1c2ccccc2NC(=NC2CCCC2)C2CSCN12` (stereo not drawn): the TGI in the experiment with NCI/ADR-RES ovarian, with SK-MEL-5 melanoma, in the experiment with PC-3 prostate, with A549 NSCLC, in the experiment with BT-549 breast and with COLO 205 colon was greater than 100 µM each time. Further, the TGI with HCT-15 colon, in the experiment with HS 578T breast and in the experiment on HCC-2998 colon was greater than 100 µM throughout.
As to `Cc1c(-c2c(C)c3ccccc3n2S(=O)(=O)c2ccccc2)n(S(=O)(=O)c2ccccc2)c2ccccc12`, the TGI with NCI/ADR-RES ovarian was greater than 100 µM; in the experiment with SK-MEL-5 melanoma it was greater than 94.1 µM; in the experiment on PC-3 prostate, greater than 100 µM; in the experiment with SF-539 CNS, greater than 100 µM; in the experiment on A549 NSCLC it was greater than 100 µM; in the experiment on BT-549 breast, greater than 100 µM. Further, the TGI in the experiment with COLO 205 colon is greater than 100 µM; in the experiment with HCT-15 colon, greater than 100 µM; in the experiment with HS 578T breast it was greater than 100 µM; in the experiment on HCC-2998 colon, greater than 69 µM.
For `CC(C)(NC(=O)OCc1ccccc1)C(=O)NC(Cc1ccccc1)C(=O)O` (stereo not drawn) (Cbz-[Aib]-[ξF]-OH), the TGI in the experiment on NCI/ADR-RES ovarian, in the experiment on SK-MEL-5 melanoma, with PC-3 prostate, in the experiment with SF-539 CNS, with A549 NSCLC and with BT-549 breast was greater than 100 µM each time. The TGI in the experiment on COLO 205 colon, with HCT-15 colon and in the experiment on HS 578T breast was greater than 100 µM in each case.
On to `NCCC(N)C(=O)O` (stereo not drawn), for which the TGI in the experiment with NCI/ADR-RES ovarian, in the experiment on SK-MEL-5 melanoma, in the experiment with PC-3 prostate, with SF-539 CNS, in the experiment with A549 NSCLC and in the experiment with BT-549 breast was greater than 100 µM each time. Besides, the TGI in the experiment on COLO 205 colon, with HCT-15 colon and in the experiment on HS 578T breast was greater than 100 µM throughout.
`O=C(CSc1nc2ccccc2[nH]1)Nc1ccc(-c2nc3ccccc3s2)c(Cl)c1`: the GI50 in the experiment with NCI/ADR-RES ovarian was 4.41 µM; with SK-MEL-5 melanoma it was 3.12 µM; in the experiment on PC-3 prostate, 2830 nM; in the experiment with SF-539 CNS it was 1700 nM; in the experiment with A549 NSCLC it was 3.25 µM; in the experiment with BT-549 breast, 7.69 µM. Moreover, the GI50 is 4.16 µM in the experiment on COLO 205 colon, 23.8 µM in the experiment on HCT-15 colon, 4.5 µM with HS 578T breast and 2770 nM in the experiment on HCC-2998 colon. Moreover, the TGI in the experiment with NCI/ADR-RES ovarian is greater than 100 µM; in the experiment on SK-MEL-5 melanoma it was greater than 100 µM; in the experiment on PC-3 prostate, greater than 100 µM; in the experiment with SF-539 CNS, 3.25 µM; in the experiment on A549 NSCLC, greater than 100 µM; with BT-549 breast it was greater than 100 µM. The TGI with COLO 205 colon is 51.4 µM; in the experiment with HCT-15 colon, greater than 100 µM; in the experiment on HS 578T breast, greater than 100 µM; in the experiment with HCC-2998 colon, 9.4 µM.
Turning to `CC(C)Oc1c(-c2c(OC(C)C)c(=O)c2=O)c(=O)c1=O`, the TGI in the experiment with NCI/ADR-RES ovarian was 26.8 µM; in the experiment on SK-MEL-5 melanoma it was greater than 61.8 µM; in the experiment on PC-3 prostate it was greater than 100 µM; with SF-539 CNS, greater than 100 µM; in the experiment with A549 NSCLC, greater than 100 µM; with BT-549 breast, greater than 61.3 µM. Moreover, the TGI with COLO 205 colon is greater than 51.9 µM; in the experiment with HCT-15 colon it was greater than 100 µM; in the experiment with HS 578T breast it was greater than 67 µM; in the experiment with HCC-2998 colon, greater than 100 µM.
In the case of `CCNC(=O)Nc1cccc(C)n1`, the TGI in the experiment on SK-MEL-5 melanoma, in the experiment on PC-3 prostate, in the experiment with SF-539 CNS, with A549 NSCLC, in the experiment with BT-549 breast and with COLO 205 colon was greater than 100 µM in each case. Also, the TGI in the experiment with HS 578T breast and in the experiment on HCC-2998 colon was greater than 100 µM each time.
Turning to `Cc1ccc([N+](=O)[O-])cc1S(=O)(=O)Nc1ccc(C2=NN(c3ccc([N+](=O)[O-])cc3[N+](=O)[O-])C(c3ccccc3)C2)cc1` (stereo not drawn), the TGI in the experiment with NCI/ADR-RES ovarian was found to be 49.4 µM; in the experiment on SK-MEL-5 melanoma it was 25.1 µM; in the experiment on PC-3 prostate, 28.8 µM; in the experiment with SF-539 CNS, 50.8 µM; with A549 NSCLC, 96.6 µM; in the experiment with BT-549 breast, 33 µM. Besides, the results for the TGI in the experiment with COLO 205 colon, in the experiment with HCT-15 colon and in the experiment with HS 578T breast were 37.4 µM, 36.8 µM and 72 µM, respectively.
For the molecule `CC(C)(CN)CN`, the TGI in the experiment on NCI/ADR-RES ovarian, in the experiment on SK-MEL-5 melanoma, in the experiment on PC-3 prostate, in the experiment with SF-539 CNS, with A549 NSCLC and in the experiment on BT-549 breast was greater than 100 µM each time. Besides, the TGI with COLO 205 colon, in the experiment with HCT-15 colon, in the experiment on HS 578T breast and with HCC-2998 colon was greater than 100 µM throughout.
Regarding `C=CC[C@H]1[C@@H](O[Si](C)(C)C(C)(C)C)[C@H](n2ccc(=O)[nH]c2=O)O[C@@H]1CO[Si](C)(C)C(C)(C)C`, the TGI was 4.95 µM in the experiment on NCI/ADR-RES ovarian; 3.18 µM in the experiment on SK-MEL-5 melanoma; 5.89 µM with PC-3 prostate; 10.4 µM in the experiment with SF-539 CNS; 5.8 µM in the experiment on A549 NSCLC; 7.67 µM in the experiment with BT-549 breast. The TGI is 3.4 µM in the experiment on COLO 205 colon, 3.63 µM in the experiment on HCT-15 colon, 12.2 µM with HS 578T breast and 3.74 µM in the experiment on HCC-2998 colon.
